The values below come from ChEMBL document CHEMBL4312037, “Fragment hopping-based discovery of novel sulfinylacetamide-diarylpyrimidines (DAPYs) as HIV-1 nonnucleoside reverse transcriptase inhibitors” (Eur J Med Chem, 2020).

Each structure is given as a SMILES string.

For orientation: IC50 means the concentration that inhibits the measured activity by half. The half-life is the time needed for the level to fall by half in the phase considered. In general, EC50 refers to the concentration giving half of the maximal effect. What is called CC50 is the concentration giving 50% cytotoxicity.

Tested on in one series: not listed separately
Briefly: in vitro. Conditions: human, MT4 cells; MT4 cells infected with HIV1 3B.
Description: Selectivity index, ratio of CC50 for cytotoxicity against human MT4 cells to EC50 for antiviral activity against HIV1 3B infected in human MT4 cells
As to `COc1cc2nc([S+]([O-])CC(=O)Nc3ccc([N+](=O)[O-])cc3)nc(Nc3c(C)cc(/C=C/C#N)cc3C)c2cc1OC` (configuration not stated), the selectivity ratio is 4590.
Consider `COc1cccc(NC(=O)C[S+]([O-])c2nc(Nc3c(Cl)cc(/C=C/C#N)cc3Cl)c3cc(OC)c(OC)cc3n2)c1` (configuration not stated), for which the selectivity ratio was at least 70.
On the same count and under the same terms, then `COc1cc2nc(Nc3ccc(C#N)cc3)nc(Nc3c(C)cc(/C=C/C#N)cc3C)c2cc1OC`, with 806.
Same read-out and setting: then `COc1ccccc1NC(=O)C[S+]([O-])c1nc(Nc2c(Cl)cc(/C=C/C#N)cc2Cl)c2cc(OC)c(OC)cc2n1` (configuration not stated), with over 63; and `COc1cc2nc(SCC(=O)Nc3ccc(C#N)cc3)nc(Nc3c(C)cc(/C=C/C#N)cc3C)c2cc1OC`, with over 746; and `COc1cc2nc(Nc3ccc(C#N)cc3)nc(Nc3c(Cl)cc(/C=C/C#N)cc3Cl)c2cc1OC`, with 1890.
On the same count and under the same terms, then `COc1cc2nc([S+]([O-])CC(=O)Nc3ccc(C#N)cc3)nc(Nc3c(C)cc(/C=C/C#N)cc3C)c2cc1OC` (configuration not stated), with over 8870; and `COc1cc2nc([S+]([O-])CC(=O)Nc3ccc(C)cc3)nc(Nc3c(Cl)cc(/C=C/C#N)cc3Cl)c2cc1OC` (configuration not stated), with 98; and `COc1cc2nc(SCC(=O)Nc3ccc([N+](=O)[O-])cc3)nc(Nc3c(C)cc(/C=C/C#N)cc3C)c2cc1OC`, with over 292.

Tested on in the next series: not listed separately
Briefly: Stability in rat liver microsomes assessed as intrinsic clearance. It is filed as ADME, Microsome. Conditions: read-out: CLH. For orientation: Microsomes from liver hold many membrane-bound enzymes, among them those of drug oxidation.
For `COc1cc2nc([S+]([O-])CC(=O)Nc3ccc(C#N)cc3)nc(Nc3c(C)cc(/C=C/C#N)cc3C)c2cc1OC` (configuration not stated), the microsomal CLint was 8.58 µL/min/mg.

A further series has as its target Human immunodeficiency virus type 1 reverse transcriptase (Human immunodeficiency virus 1, UniProt Q72547).
Test: not given
Conditions: not given
`COc1cc2nc([S+]([O-])CC(=O)Nc3ccc([N+](=O)[O-])cc3)nc(Nc3c(C)cc(/C=C/C#N)cc3C)c2cc1OC` (configuration not stated) had an IC50 of 11 nM.
The same measure, in the same setting: then `COc1cc2nc(Nc3ccc(C#N)cc3)nc(Nc3c(C)cc(/C=C/C#N)cc3C)c2cc1OC`, with 550 nM; and `COc1cc2nc(SCC(=O)Nc3ccc(C#N)cc3)nc(Nc3c(C)cc(/C=C/C#N)cc3C)c2cc1OC`, with 3630 nM; and `COc1cc2nc(Nc3ccc(C#N)cc3)nc(Nc3c(Cl)cc(/C=C/C#N)cc3Cl)c2cc1OC`, with 46 nM.
Still for that read-out and setting: then `COc1cc2nc([S+]([O-])CC(=O)Nc3ccc(C#N)cc3)nc(Nc3c(C)cc(/C=C/C#N)cc3C)c2cc1OC` (configuration not stated), with 5.7 nM; and `COc1cc2nc(SCC(=O)Nc3ccc([N+](=O)[O-])cc3)nc(Nc3c(C)cc(/C=C/C#N)cc3C)c2cc1OC`, with 4000 nM.

Tested on in the next series: not listed separately
Description: Stability in human liver microsomes assessed as intrinsic clearance. It is filed as ADME, Microsome. Conditions: read-out: CLH.
Consider `COc1cc2nc([S+]([O-])CC(=O)Nc3ccc(C#N)cc3)nc(Nc3c(C)cc(/C=C/C#N)cc3C)c2cc1OC` (configuration not stated), for which the microsomal CLint came to 8.45 µL/min/mg.

Tested on in a further series: not listed separately
Briefly: Stability in human liver microsomes assessed as half life.
Conditions: not given
It is filed as ADME, Microsome.
For the molecule `COc1cc2nc([S+]([O-])CC(=O)Nc3ccc(C#N)cc3)nc(Nc3c(C)cc(/C=C/C#N)cc3C)c2cc1OC` (configuration not stated), the half-life came to 82 min.

The next series deals with Human immunodeficiency virus 1. Description: Antiviral activity against HIV1 3B harbouring NNRTI K103N mutant infected in human MT4 cells assessed as virus-induced cytopathic effect incubated for 5 days by MTT assay. It is filed as functional, organism-based. Conditions: Human immunodeficiency virus 1, 3B, MT4, 120 h. (In general: Protection from cytopathic effect is a common read-out in antiviral testing.)
Turning to `COc1cc2nc([S+]([O-])CC(=O)Nc3ccc([N+](=O)[O-])cc3)nc(Nc3c(C)cc(/C=C/C#N)cc3C)c2cc1OC` (configuration not stated), the EC50 came to 15.7 nM.
On the same count and under the same terms, then `COc1cccc(NC(=O)C[S+]([O-])c2nc(Nc3c(Cl)cc(/C=C/C#N)cc3Cl)c3cc(OC)c(OC)cc3n2)c1` (configuration not stated), with 465 nM.
Same read-out and setting: then `COc1cc2nc(Nc3ccc(C#N)cc3)nc(Nc3c(C)cc(/C=C/C#N)cc3C)c2cc1OC`, with 10.4 nM; and `COc1ccccc1NC(=O)C[S+]([O-])c1nc(Nc2c(Cl)cc(/C=C/C#N)cc2Cl)c2cc(OC)c(OC)cc2n1` (configuration not stated), with 1540 nM.
Still for that read-out and setting: then `COc1cc2nc(SCC(=O)Nc3ccc(C#N)cc3)nc(Nc3c(C)cc(/C=C/C#N)cc3C)c2cc1OC`, with 201 nM.
On to `COc1cc2nc(Nc3ccc(C#N)cc3)nc(Nc3c(Cl)cc(/C=C/C#N)cc3Cl)c2cc1OC`, for which the 50% effective concentration (EC50) was found to be 6.3 nM.
Consider `COc1cc2nc([S+]([O-])CC(=O)Nc3ccc(C#N)cc3)nc(Nc3c(C)cc(/C=C/C#N)cc3C)c2cc1OC` (configuration not stated), for which the 50% effective concentration (EC50) is 10.4 nM.
Still for that read-out and setting: then `COc1cc2nc([S+]([O-])CC(=O)Nc3ccc(C)cc3)nc(Nc3c(Cl)cc(/C=C/C#N)cc3Cl)c2cc1OC` (configuration not stated), with 49 nM; and `COc1cc2nc(SCC(=O)Nc3ccc([N+](=O)[O-])cc3)nc(Nc3c(C)cc(/C=C/C#N)cc3C)c2cc1OC`, with 358 nM.

Tested on in the next series: not listed separately
Description: Cytotoxicity against human MT4 cells assessed as reduction in cell viability incubated for 5 days by MTT assay. It is filed as cell-based.
Conditions: not given
A general note: Tetrazolium assays rely on reduction of a dye to a coloured formazan, in cell work by metabolically active cells.
As for `COc1cc2nc([S+]([O-])CC(=O)Nc3ccc([N+](=O)[O-])cc3)nc(Nc3c(C)cc(/C=C/C#N)cc3C)c2cc1OC` (configuration not stated), the half-maximal cytotoxic concentration (CC50) at 120 h is 189 µM.
On the same count and under the same terms, then `COc1cccc(NC(=O)C[S+]([O-])c2nc(Nc3c(Cl)cc(/C=C/C#N)cc3Cl)c3cc(OC)c(OC)cc3n2)c1` (configuration not stated), with at least 167 µM.
As to `COc1cc2nc(Nc3ccc(C#N)cc3)nc(Nc3c(C)cc(/C=C/C#N)cc3C)c2cc1OC`, the cytotoxic concentration (CC50) at 120 h was determined as 10.2 µM.
As for `COc1ccccc1NC(=O)C[S+]([O-])c1nc(Nc2c(Cl)cc(/C=C/C#N)cc2Cl)c2cc(OC)c(OC)cc2n1` (configuration not stated), the half-maximal cytotoxic concentration (CC50) at 120 h is over 204 µM.
Turning to `COc1cc2nc(SCC(=O)Nc3ccc(C#N)cc3)nc(Nc3c(C)cc(/C=C/C#N)cc3C)c2cc1OC`, the CC50 at 120 h is over 227 µM.
Regarding `COc1cc2nc(Nc3ccc(C#N)cc3)nc(Nc3c(Cl)cc(/C=C/C#N)cc3Cl)c2cc1OC`, the CC50 at 120 h was 9.92 µM.
Still for that read-out and setting: then `COc1cc2nc([S+]([O-])CC(=O)Nc3ccc(C#N)cc3)nc(Nc3c(C)cc(/C=C/C#N)cc3C)c2cc1OC` (configuration not stated), with over 221 µM.
On to `COc1cc2nc([S+]([O-])CC(=O)Nc3ccc(C)cc3)nc(Nc3c(Cl)cc(/C=C/C#N)cc3Cl)c2cc1OC` (configuration not stated), for which the CC50 at 120 h worked out at 32.2 µM.
Still for that read-out and setting: then `COc1cc2nc(SCC(=O)Nc3ccc([N+](=O)[O-])cc3)nc(Nc3c(C)cc(/C=C/C#N)cc3C)c2cc1OC`, with over 219 µM.

Tested on in a further series: not listed separately
Description: in vitro. Conditions: human, MT4 cells; MT4 cells infected with HIV1 3B K103N mutant.
Description: Selectivity index, ratio of CC50 for cytotoxicity against human MT4 cells to EC50 for antiviral activity against HIV1 3B harbouring NNRTI K103N mutant infected in human MT4 cells
Consider `COc1cc2nc([S+]([O-])CC(=O)Nc3ccc([N+](=O)[O-])cc3)nc(Nc3c(C)cc(/C=C/C#N)cc3C)c2cc1OC` (configuration not stated), for which the selectivity ratio was determined as 12100.
Take `COc1cccc(NC(=O)C[S+]([O-])c2nc(Nc3c(Cl)cc(/C=C/C#N)cc3Cl)c3cc(OC)c(OC)cc3n2)c1` (configuration not stated): the selectivity ratio was at least 439.
For `COc1cc2nc(Nc3ccc(C#N)cc3)nc(Nc3c(C)cc(/C=C/C#N)cc3C)c2cc1OC`, the selectivity ratio stood at 986.
Regarding `COc1ccccc1NC(=O)C[S+]([O-])c1nc(Nc2c(Cl)cc(/C=C/C#N)cc2Cl)c2cc(OC)c(OC)cc2n1` (configuration not stated), the selectivity ratio is over 132.
On the same count and under the same terms, then `COc1cc2nc(SCC(=O)Nc3ccc(C#N)cc3)nc(Nc3c(C)cc(/C=C/C#N)cc3C)c2cc1OC`, with over 1130.
As for `COc1cc2nc(Nc3ccc(C#N)cc3)nc(Nc3c(Cl)cc(/C=C/C#N)cc3Cl)c2cc1OC`, the selectivity ratio worked out at 1580.
On to `COc1cc2nc([S+]([O-])CC(=O)Nc3ccc(C#N)cc3)nc(Nc3c(C)cc(/C=C/C#N)cc3C)c2cc1OC` (configuration not stated), for which the selectivity ratio is over 21200.
On the same count and under the same terms, then `COc1cc2nc([S+]([O-])CC(=O)Nc3ccc(C)cc3)nc(Nc3c(Cl)cc(/C=C/C#N)cc3Cl)c2cc1OC` (configuration not stated), with 657; and `COc1cc2nc(SCC(=O)Nc3ccc([N+](=O)[O-])cc3)nc(Nc3c(C)cc(/C=C/C#N)cc3C)c2cc1OC`, with over 612.

Tested on in the next series: not listed separately
Briefly: Stability in rat liver microsomes assessed as half life. It is filed as ADME, Microsome.
Conditions: not given
For the molecule `COc1cc2nc([S+]([O-])CC(=O)Nc3ccc(C#N)cc3)nc(Nc3c(C)cc(/C=C/C#N)cc3C)c2cc1OC` (configuration not stated), the half-life is 80.8 min.

Another series relates to Human immunodeficiency virus 1. Briefly: Antiviral activity against HIV1 3B infected in human MT4 cells assessed as virus-induced cytopathic effect incubated for 5 days by MTT assay. It is filed as functional, organism-based. Conditions: Human immunodeficiency virus 1, 3B, MT4, 120 h.
On to `COc1cc2nc([S+]([O-])CC(=O)Nc3ccc([N+](=O)[O-])cc3)nc(Nc3c(C)cc(/C=C/C#N)cc3C)c2cc1OC` (configuration not stated), for which the EC50 turned out to be 41.2 nM.
Same read-out and setting: then `COc1cccc(NC(=O)C[S+]([O-])c2nc(Nc3c(Cl)cc(/C=C/C#N)cc3Cl)c3cc(OC)c(OC)cc3n2)c1` (configuration not stated), with 2370 nM; and `COc1cc2nc(Nc3ccc(C#N)cc3)nc(Nc3c(C)cc(/C=C/C#N)cc3C)c2cc1OC`, with 12.7 nM.
Same read-out and setting: then `COc1ccccc1NC(=O)C[S+]([O-])c1nc(Nc2c(Cl)cc(/C=C/C#N)cc2Cl)c2cc(OC)c(OC)cc2n1` (configuration not stated), with 3220 nM; and `COc1cc2nc(SCC(=O)Nc3ccc(C#N)cc3)nc(Nc3c(C)cc(/C=C/C#N)cc3C)c2cc1OC`, with 304 nM.
Consider `COc1cc2nc(Nc3ccc(C#N)cc3)nc(Nc3c(Cl)cc(/C=C/C#N)cc3Cl)c2cc1OC`, for which the EC50 was 5.3 nM.
Consider `COc1cc2nc([S+]([O-])CC(=O)Nc3ccc(C#N)cc3)nc(Nc3c(C)cc(/C=C/C#N)cc3C)c2cc1OC` (configuration not stated), for which the concentration giving a half-maximal response (EC50) came to 24.9 nM.
On to `COc1cc2nc([S+]([O-])CC(=O)Nc3ccc(C)cc3)nc(Nc3c(Cl)cc(/C=C/C#N)cc3Cl)c2cc1OC` (configuration not stated), for which the EC50 amounted to 327 nM.
Still for that read-out and setting: then `COc1cc2nc(SCC(=O)Nc3ccc([N+](=O)[O-])cc3)nc(Nc3c(C)cc(/C=C/C#N)cc3C)c2cc1OC`, with 749 nM.

In a further series the test system is Human immunodeficiency virus 1. Description: Antiviral activity against HIV1. It is filed as functional, organism-based.
Conditions: not given
Regarding `O=C(CSc1nnc(Br)n1-c1ccc(C2CC2)c2ccccc12)Nc1ccc(C(=O)O)cc1Cl`, the 50% effective concentration (EC50) amounted to 2.85 nM.

The next series has as its system Human immunodeficiency virus 1. Briefly: Antiviral activity against HIV1 harbouring NNRTI K103N.
Conditions: not given
It is filed as functional, organism-based.
For `O=C(CSc1nnc(Br)n1-c1ccc(C2CC2)c2ccccc12)Nc1ccc(C(=O)O)cc1Cl`, the 50% effective concentration (EC50) is under 3 nM.
